In US11891634B2, “PDE5A destabilizing domains” (The Board of Trustees of the Leland Stanford Junior …, priority 2017, dated 2024):

Legend:
Type in all cases: cell-based, human
[1] = test system: HCT116 cells transduced with the constructs; experiment: Response to Sildenafil, GFP expression by flow cytometry in HCT116; conditions: for MFI / Stabilization ratio with Sildenafil: 48 hours, HCT116
Method: Similar experiments were performed in HCT116 cells using sildenafil. The above-mentioned DDs were cloned as AcGFP fusion into pELNS vector carrying mCherry marker and packaged in lentiviral vectors. HCT116 cells were transduced with the constructs and stable integrants were selected by cell sorting using mCherry marker. Cells were treated with sildenafil at the following μM concentrations: 0.01, 0.02, 0.05, 0.14, 0.41, 1.23, 3.7, 11.11, 33.33, and 100 for a duration of 48 hours. The fluorescence was analyzed by flow cytometry and the mean fluorescence intensity was calculated for all samples. […] The stabilization ratios are shown in Table 24 and Table 25 and the basal expression is show in Table 26.

[2] = test system: HCT 116 cells transduced with the PDE5A DD derived GFP constructs; experiment: Response to Vardenafil, GFP expression by FACS in HCT116; conditions: for MFI / Stabilization ratio with Vardenafil: 48 hours, HCT116; for Basal: Table 15, MFI with DMSO / parental HCT116, Vardenafil experiment
Method: (§1) Mutations were created in PDE5A (535-860) catalytic domain using site directed mutagenesis and the mutants were cloned as AcGFP fusion into pELNS vector carrying mCherry marker and packaged in lentiviral vectors. HCT116 cells were transduced with the constructs and stable integrants were selected by cell sorting using mCherry marker. Cells were treated with vehicle (dimethyl sulfoxide, DMSO) or 10 μM Vardenafil (VDF) for 48 hours. Following the treatment, cells were analyzed for GFP expression using FACS. Basal expression was calculated as the ratio of GFP signal in the absence of ligand for a given cell line to auto fluorescence of parental HCT-116 cells. Stabilization ratio was calculated as the ratio of the GFP signal observed in the presence of stabilizing ligand to the signal from the same cell line in the absence of ligand.
HCT 116 cells transduced with the PDE5A DD derived GFP constructs were also tested with increasing doses of Vardenafil. The HCT116 cells were incubated for 48 hours with Vardenafil starting at a dose of 0.002 μM to 30 μM. The GFP intensity of the Vardenafil treated samples was compared to the parental untransduced HCT116 and DMSO treated cells for each construct. The mean fluorescence intensity was calculated for each sample and used to calculate the stabilization ratios as well as the basal expression for each construct. The GFP expression was measured using flow cytometry and the mean fluorescence intensity (MFI) was calculated for each sample. The stabilization ratios are shown in Table 13 and Table 14 and the basal expression is show in Table 15.

[3] = test system: HCT 116 cells transduced with the PDE5A DD derived GFP constructs; experiment: Response to Tadalafil, GFP expression by FACS in HCT116; conditions: for MFI / Stabilization ratio with Tadalafil: 48 hours, HCT116
Method: as §1, with “PDE5AN (#3) was” for “Mutations were created in PDE5A (535-860) catalytic domain using site directed mutagenesis and the mutants were”, “construct” for “constructs”, “varying doses of Tadalafil (TDF)” for “10 μM Vardenafil (VDF)”, “hrs with doses ranging from 0.01 μM to 100 μM.” for “hours.”
HCT 116 cells transduced with the PDE5A DD derived GFP constructs were also tested with increasing doses of Tadalafil. The HCT116 cells were incubated for 48 hours with Tadalafil starting at dose 0.01 μM to 100 μM. The GFP intensity of the Tadalafil treated samples was compared to the parental untransduced HCT116 and DMSO treated cells for each construct. The mean fluorescence intensity was calculated for each sample and used to calculate the stabilization ratios as well as the basal expression for each construct. The stabilization ratios are shown in Table 19 and Table 20 and the basal expression is show in Table 21.

PDE5AC (#43): AcGFP fused to C-terminal DD 535-860 of PDE5A (Q589R, N609H, Y676N, A762S), SEQ ID NO. 29
MFI ([1]; DMSO (no Sildenafil)): 11147
Stabilization ratio with Sildenafil ([1]; Sildenafil 0.01 μM vs DMSO): 1.1
MFI ([1]; Sildenafil 0.01 μM): 11962
Stabilization ratio with Sildenafil ([1]; Sildenafil 0.02 μM vs DMSO): 1.1
MFI ([1]; Sildenafil 0.02 μM): 11940
Stabilization ratio with Sildenafil ([1]; Sildenafil 0.05 μM vs DMSO): 1.4
MFI ([1]; Sildenafil 0.05 μM): 15203
MFI ([1]; Sildenafil 0.14 μM): 24319
Stabilization ratio with Sildenafil ([1]; Sildenafil 0.41 μM vs DMSO): 3.6
MFI ([1]; Sildenafil 0.41 μM): 40470
Stabilization ratio with Sildenafil ([1]; Sildenafil 1.23 μM vs DMSO): 5.2
MFI ([1]; Sildenafil 1.23 μM): 57723
Stabilization ratio with Sildenafil ([1]; Sildenafil 3.70 μM vs DMSO): 6.6
MFI ([1]; Sildenafil 3.70 μM): 73400
Stabilization ratio with Sildenafil ([1]; Sildenafil 11.11 μM vs DMSO): 6.9
MFI ([1]; Sildenafil 11.11 μM): 76900
Stabilization ratio with Sildenafil ([1]; Sildenafil 33.33 μM vs DMSO): 8.5
MFI ([1]; Sildenafil 33.33 μM): 94863
Stabilization ratio with Sildenafil ([1]; Sildenafil 100.00 μM vs DMSO): 5.1
MFI ([1]; Sildenafil 100.00 μM): 56552
Basal expression ([1]; Table 26, MFI with DMSO / parental HCT116, Sildenafil experiment): 8.7
MFI ([2]; DMSO (no Vardenafil)): 12047
Basal (DMSO/Parental) ([2]; Table 10, GFP signal without ligand / auto fluorescence of parental HCT-116): 8.7
Basal [2]: 6.17
Stabilization ratio with Vardenafil ([2]; Vardenafil 0.002 μM vs DMSO): 1.1
MFI ([2]; Vardenafil 0.002 μM): 13329
MFI ([2]; Vardenafil 0.005 μM): 17702
Stabilization ratio with Vardenafil ([2]; Vardenafil 0.014 μM vs DMSO): 2.8
MFI ([2]; Vardenafil 0.014 μM): 33483
Stabilization ratio with Vardenafil ([2]; Vardenafil 0.041 μM vs DMSO): 4.6
MFI ([2]; Vardenafil 0.041 μM): 55300
Stabilization ratio with Vardenafil ([2]; Vardenafil 0.123 μM vs DMSO): 5.8
MFI ([2]; Vardenafil 0.123 μM): 70385
Stabilization ratio with Vardenafil ([2]; Vardenafil 0.370 μM vs DMSO): 6.5
MFI ([2]; Vardenafil 0.370 μM): 78215
Stabilization ratio with Vardenafil ([2]; Vardenafil 1.111 μM vs DMSO): 6.9
MFI ([2]; Vardenafil 1.111 μM): 83052
Stabilization ratio with Vardenafil ([2]; Vardenafil 3.333 μM vs DMSO): 7.4
MFI ([2]; Vardenafil 3.333 μM): 88707
Stabilization ratio with Vardenafil ([2]; Vardenafil 10 μM vs DMSO): 7.1
MFI ([2]; Vardenafil 10 μM): 85867
Stabilization ratio with Vardenafil ([2]; Vardenafil 30 μM vs DMSO): 7.2
MFI ([2]; Vardenafil 30 μM): 86318
MFI ([3]; DMSO (no Tadalafil)): 10998
Basal expression ([3]; Table 21, MFI with DMSO / parental HCT116, Tadalafil experiment): 8.59
Stabilization ratio with Tadalafil ([3]; Tadalafil 0.01 μM vs DMSO): 1.0
MFI ([3]; Tadalafil 0.01 μM): 11444
Stabilization ratio with Tadalafil ([3]; Tadalafil 0.02 μM vs DMSO): 1.0
MFI ([3]; Tadalafil 0.02 μM): 11479
Stabilization ratio with Tadalafil ([3]; Tadalafil 0.05 μM vs DMSO): 1.1
MFI ([3]; Tadalafil 0.05 μM): 11764
Stabilization ratio with Tadalafil ([3]; Tadalafil 0.14 μM vs DMSO): 1.2
MFI ([3]; Tadalafil 0.14 μM): 13429
Stabilization ratio with Tadalafil ([3]; Tadalafil 0.41 μM vs DMSO): 1.7
MFI ([3]; Tadalafil 0.41 μM): 18940
Stabilization ratio with Tadalafil ([3]; Tadalafil 1.23 μM vs DMSO): 2.9
MFI ([3]; Tadalafil 1.23 μM): 32204
Stabilization ratio with Tadalafil ([3]; Tadalafil 3.7 μM vs DMSO): 4.5
MFI ([3]; Tadalafil 3.7 μM): 49646
Stabilization ratio with Tadalafil ([3]; Tadalafil 11.11 μM vs DMSO): 5.8
MFI ([3]; Tadalafil 11.11 μM): 64186
Stabilization ratio with Tadalafil ([3]; Tadalafil 33.33 μM vs DMSO): 6.8
MFI ([3]; Tadalafil 33.33 μM): 74446
Stabilization ratio with Tadalafil ([3]; Tadalafil 100 μM vs DMSO): 6.9
MFI ([3]; Tadalafil 100 μM): 76281

PDE5AC (#69): AcGFP fused to C-terminal DD 535-860 of PDE5A (Q589R, N636S, D687A, D764N, S815C), SEQ ID NO. 30
MFI ([1]; DMSO (no Sildenafil)): 9575
Stabilization ratio with Sildenafil ([1]; Sildenafil 0.01 μM vs DMSO): 1.0
MFI ([1]; Sildenafil 0.01 μM): 9574
Stabilization ratio with Sildenafil ([1]; Sildenafil 0.02 μM vs DMSO): 1.2
MFI ([1]; Sildenafil 0.02 μM): 11755
Stabilization ratio with Sildenafil ([1]; Sildenafil 0.05 μM vs DMSO): 1.2
MFI ([1]; Sildenafil 0.05 μM): 11944
MFI ([1]; Sildenafil 0.14 μM): 19733
Stabilization ratio with Sildenafil ([1]; Sildenafil 0.41 μM vs DMSO): 3.1
MFI ([1]; Sildenafil 0.41 μM): 30090
Stabilization ratio with Sildenafil ([1]; Sildenafil 1.23 μM vs DMSO): 4.6
MFI ([1]; Sildenafil 1.23 μM): 44180
Stabilization ratio with Sildenafil ([1]; Sildenafil 3.70 μM vs DMSO): 5.5
MFI ([1]; Sildenafil 3.70 μM): 52782
Stabilization ratio with Sildenafil ([1]; Sildenafil 11.11 μM vs DMSO): 6.2
MFI ([1]; Sildenafil 11.11 μM): 59723
Stabilization ratio with Sildenafil ([1]; Sildenafil 33.33 μM vs DMSO): 6.8
MFI ([1]; Sildenafil 33.33 μM): 65183
Stabilization ratio with Sildenafil ([1]; Sildenafil 100.00 μM vs DMSO): 5.4
MFI ([1]; Sildenafil 100.00 μM): 51774
MFI ([2]; DMSO (no Vardenafil)): 9466
Basal [2]: 4.84
Stabilization ratio with Vardenafil ([2]; Vardenafil 0.002 μM vs DMSO): 1.1
MFI ([2]; Vardenafil 0.002 μM): 10817
MFI ([2]; Vardenafil 0.005 μM): 13682
Stabilization ratio with Vardenafil ([2]; Vardenafil 0.014 μM vs DMSO): 2.9
MFI ([2]; Vardenafil 0.014 μM): 27457
Stabilization ratio with Vardenafil ([2]; Vardenafil 0.041 μM vs DMSO): 3.4
MFI ([2]; Vardenafil 0.041 μM): 32264
Stabilization ratio with Vardenafil ([2]; Vardenafil 0.123 μM vs DMSO): 5.3
MFI ([2]; Vardenafil 0.123 μM): 49884
Stabilization ratio with Vardenafil ([2]; Vardenafil 0.370 μM vs DMSO): 7.9
MFI ([2]; Vardenafil 0.370 μM): 74730
Stabilization ratio with Vardenafil ([2]; Vardenafil 1.111 μM vs DMSO): 6.6
MFI ([2]; Vardenafil 1.111 μM): 62065
Stabilization ratio with Vardenafil ([2]; Vardenafil 3.333 μM vs DMSO): 7.0
MFI ([2]; Vardenafil 3.333 μM): 66625
Stabilization ratio with Vardenafil ([2]; Vardenafil 10 μM vs DMSO): 6.8
MFI ([2]; Vardenafil 10 μM): 64380
Stabilization ratio with Vardenafil ([2]; Vardenafil 30 μM vs DMSO): 2.4
MFI ([2]; Vardenafil 30 μM): 22775
MFI ([3]; DMSO (no Tadalafil)): 8822
Stabilization ratio with Tadalafil ([3]; Tadalafil 0.01 μM vs DMSO): 1.1
MFI ([3]; Tadalafil 0.01 μM): 9337
Stabilization ratio with Tadalafil ([3]; Tadalafil 0.02 μM vs DMSO): 1.2
MFI ([3]; Tadalafil 0.02 μM): 10353
Stabilization ratio with Tadalafil ([3]; Tadalafil 0.05 μM vs DMSO): 1.4
MFI ([3]; Tadalafil 0.05 μM): 12365
MFI ([3]; Tadalafil 0.14 μM): 19039
Stabilization ratio with Tadalafil ([3]; Tadalafil 0.41 μM vs DMSO): 3.7
MFI ([3]; Tadalafil 0.41 μM): 32821
Stabilization ratio with Tadalafil ([3]; Tadalafil 1.23 μM vs DMSO): 5.9
MFI ([3]; Tadalafil 1.23 μM): 52033
Stabilization ratio with Tadalafil ([3]; Tadalafil 3.7 μM vs DMSO): 7.1
MFI ([3]; Tadalafil 3.7 μM): 62558
Stabilization ratio with Tadalafil ([3]; Tadalafil 11.11 μM vs DMSO): 7.9
MFI ([3]; Tadalafil 11.11 μM): 69440
Stabilization ratio with Tadalafil ([3]; Tadalafil 33.33 μM vs DMSO): 7.7
MFI ([3]; Tadalafil 33.33 μM): 68289
MFI ([3]; Tadalafil 100 μM): 67259
